Paper PMC8391236, “Effect of Pterostilbene, a Natural Derivative of Resveratrol, in the Treatment of Colorectal Cancer through Top1/Tdp1-Mediated DNA Repair Pathway” (Cancers, 2021)

Key:
SW480 = experiment: Cell viability assay (CCK-8); assay type: cell-based; conditions: Homo sapiens
Description: (§1) PTE or RE were dissolved in DMSO and diluted with culture medium to 1–100 μM. The final concentration of DMSO was less than 0.1%, and 0.1% DMSO as negative control. CPT, as Top1 inhibitor, was diluted to 0.5 μM [36, 37], and FM, as Tdp1 inhibitor was diluted to 25 μM [38]. Exponentially growing cells were seeded in 96-well plates (5 × 10^3 cells/well) for 12 h. Various drugs were added separately and incubated for 24, 48, and 72 h. Cell viability was determined by CCK-8 (Beyotime Biotechnology, Shanghai, China) assay. […]
(§2) The drug concentration required for inhibiting cell proliferation by 50% (IC50) was determined by interpolation from dose-response curves.

HFL-1 = experiment: Proliferation of non-tumor cells (CCK-8); assay type: cell-based; conditions: Homo sapiens, HFL1
Description: as §1, with “The” for “PTE or RE were dissolved in DMSO and diluted with culture medium to 1–100 μM. The”
as §2

[1] = system: subcutaneous CL187 xenograft; experiment: Subcutaneous CL187 xenograft model; assay type: in vivo, BABLc/nude mice
Description: CL187 cell suspension was collected at 1 × 10^6 /mL, and 0.1 mL cell was inoculated into the right inguinal region of nude mice. The tumor was no metastasis. The diameter of the transplanted tumor in nude mice was measured with a vernier caliper. After 16-day inoculation (the tumor grew to 90 mm^3), the animals were randomly divided into 7 groups (6 mice per group). The drug was administered by intraperitoneal injection. Blank control group was injected with saline. […] According to the preliminary test results. […] Positive control group was injected with irinotecan (20 mg/kg) twice a week, During the experiment, the changes of body weight of nude mice were recorded, and the anti-tumor effect of the samples was dynamically investigated by measuring tumor diameter. On Day 31 post treatment, the nude mice were sacrificed, and the tumor blocks were removed surgically, weighed, and recorded.

[2] = system: orthotopic CL187 xenograft; experiment: Orthotopic CL187 xenograft model; assay type: in vivo, BABLc/nude mice; conditions: for Tumor Weight: 21 days; for Ki67 labeling rate in tumor tissue: vector control 46.53±3.86%
Description: The mice were anaesthetized with 10% chloral hydrate and fixed on the operating table. After the abdomen of the mice was disinfected with iodine, a small section of the large intestine was squeezed out of the surgical opening. The 0.1 mL (per mouse) CL187 cell suspension (1 × 10^7 /mL) was inoculated into the colon wall of nude mice. After the inoculation, the large intestine was placed into the mouse abdominal cavity. After the wound was sutured, the mice were put into cages until they naturally woke up. After 10 days of inoculation, the animals were randomly divided into 4 groups (6 mice per group). Vector control group was intraperitoneally injected with 5% DMSO and 95% saline containing 30% HP-β-CD (i.p.). The drug dosage was designed according to the results of the previous pharmacokinetic experiment. Experimental Group 1 was intraperitoneal injected (i.p.) with PTE 100 mg/kg, and experiment Group 2 was intragastric administrated (i.g.) with PTE 500 mg/kg, once a day. The bioavailability of PTE was the same in the animals in the above regimens. Positive control group was injected with irinotecan, 20 mg/kg, twice a week. During the experiment, the changes of body weight of nude mice were recorded. After 21 days, the nude mice were sacrificed, the tumor blocks were removed surgically, weighed, and recorded.
Tumor and organ tissues were paraffin-embedded and sectioned into […] after being fixed in 4% of paraformaldehyde solution for 24 h. The sections were deparaffinized and rehydrated before detection. For histological observation, tumor sections were stained with hematoxylin and eosin (HE), and then observed by an inverted microscopy (Olympus, Japan).
For immunohistochemistry analysis, the sections were treated with 3% hydrogen peroxide for 10 min to block endogenous peroxidase, and then incubated with Ki67 primary antibody for overnight at 4 °C. Subsequently, the sections were treated with secondary antibody at room temperature for 20 min. After being washed with PBS, the sections were incubated with DAB chromogenic solution for 10 min, followed by rewashing in PBS. The sections were counterstained with hematoxylin after DAB coloration. The antibody specificity was confirmed by negative control without primary antibody treatment. Immunopositive areas were observed by an inverted microscope (Olympus, Japan).

Tdp1 = experiment: Western blot of Tdp1 protein in cells; assay type: cell-based, Human; conditions: 6 h
Description: CL187 cells were treated with RE or PTE for 6 or 12 h, collected, and placed into lysis buffer (KeyGEN BioTECH, Nanjing, China). The total protein content in the cell lysates was measured using a BCA kit. Equivalent amount of total protein (30 μg) was loaded onto 10% SDS-PAGE gel. Electrophoresis was performed at 80 V for 25 min. After the sample went through concentrated gel, the voltage was adjusted to 120 V. Electrophoresis was stopped when the bromophenol blue band approached the bottom of the gel. After being transferred to PVDF membranes, the samples were incubated separately with 3 types of primary antibodies Top1, Tdp1, and P53 rabbit mAb (CST, Boston, MA, USA), followed by the incubation with secondary antibody goat anti-rabbit IgG (HRP)-conjugated (1:3000). ECL kit (New Cell and Molecular Biotech, Suzhou, China) was used for color development, and the images were collected by the gel imaging system (Tanon-5200, Shanghai, China).

Top1 and Tdp1 = Top1 and Tdp1 in xenograft tumor tissues (WB, qPCR); assay type: in vivo, BABLc/nude mice; conditions: subcutaneous CL187 xenograft
Description: The 20 mg of the tumor was added into 1 mL RIPA lysis, and homogenized for 3 times under low temperature condition, and centrifuged at 12,000 rpm for 10 min. Subsequently, the supernatant was collected, and the contents of Top1 and Tdp1 were determined by WB as described in Section 2.4.4. The 20 mg of tumor was added into 1 mL Trizol, and homogenized for 3 times. The expression levels of Top1 and Tdp1 were analyzed using the method described in Section 2.4.5.

[3] = 25 mg/kg i.p. once a day, Day 31
[4] = 50 mg/kg i.p. once a day, Day 31
[5] = 100 mg/kg i.p. once a day, Day 31
[6] = 200 mg/kg i.p. once a day, Day 31

IC50 (SW480; SW480, 24 h): 113 ± 24 µM | IC50 (SW480; SW480, 48 h): 35.7 ± 9.32 µM | IC50 (SW480; SW480, 72 h): 40.5 ± 10.8 µM
SMILES: COc1cc(/C=C/c2ccc(O)cc2)cc(OC)c1 [PTE, 3,5-dimethoxy-4′-hydroxy-trans-stilbene]
IC50 (HFL-1; HFL-1, 24 h): 339 µM | IC50 (HFL-1; HFL-1, 48 h): 315 µM | IC50 (HFL-1; HFL-1, 72 h): 130 µM | Relative Tumor Proliferation Rate (T/C, %) [1, 3]: 53.53% | Tumor Inhibitory Rate (TGI, %) [1, 3]: 54.24 ± 4.80% | Tumor Volume [1, 3]: 1.725 ± 0.203 ** cm^3 | Tumor Weight [1, 3]: 1.60 ± 0.17 g | TGI ([1]; 25 mg/kg, 31 days): 54.24 ± 4.80% | Relative Tumor Proliferation Rate (T/C, %) [1, 4]: 39.56% | Tumor Volume [1, 4]: 1.243 ± 0.189 *** cm^3 | Tumor Weight [1, 4]: 1.39 ± 0.19 g | Relative Tumor Proliferation Rate (T/C, %) [1, 5]: 24.20% | Tumor Volume [1, 5]: 0.779 ± 0.168 *** cm^3 | Tumor Weight [1, 5]: 0.96 ± 0.11 g | Relative Tumor Proliferation Rate (T/C, %) [1, 6]: 20.71% | Tumor Volume [1, 6]: 0.623 ± 0.158 *** cm^3 | Tumor Weight [1, 6]: 0.73 ± 0.09 g | adverse reactions during the entire treatment process ([1]; subcutaneous CL187 xenograft nude mice, CPT-11 20 mg/kg, PTE 25-200 mg/kg i.p.): did not have the above-mentioned adverse reactions | Tumor Weight ([2]; 100 mg/kg-i.p. once a day): 0.51 ± 0.12 g | Ki67 labeling rate in tumor tissue ([2]; 100 mg/kg-i.p.): 4.89 ± 1.82% | Tumor Weight ([2]; 500 mg/kg-i.g. once a day): 0.60 ± 0.06 g | Ki67 labeling rate in tumor tissue ([2]; 500 mg/kg-i.g.): 12.03 ± 3.40% | Tdp1 protein content (Tdp1; Tdp1-over CL187 cells): reduced in dese-dependent manner | Tdp1 protein content (Tdp1; siRNA-Top1 CL187 cells): reduced in a dose-dependent manner | Tdp1 protein content (Tdp1; wild-type CL187 cells): decreased in PTE treatment group, but neither in dese-dependent and significant manner | mRNA expression of Top1 and Tdp1 in tumor tissues (Top1 and Tdp1): inhibited | protein contents of Top1 and Tdp1 in tumor tissues (WB) (Top1 and Tdp1; especially high-concentration group): decreased significantly
